Assay results: patent US20260217705A1, “POLYMORPHS OF THE HYDROBROMIDE SALT OF LINAPRAZAN GLURATE” (CINCLUS PHARMA HOLDING AB (PUBL), priority 2023, published 2026)
Entries after “also recorded” stand apart in the source; their conditions may differ. Like-named read-outs stand apart in the source and are kept apart here.

Key:
[1] = cited from earlier work
intragastric acidity = settings: cited from earlier work
[2] = cited from earlier work; remark: listed apart in the source
clinical = settings: human, in vivo
Experimental: Linaprazan glurate is a prodrug of linaprazan, which was disclosed in WO 99/55706 and previously studied in Phase I and II studies. […] A clinical Phase I study has shown that administration of a single dose of linaprazan glurate can maintain the intragastric acidity above pH 4 for 24 hours. Linaprazan glurate is therefore tailored for patients with severe erosive gastroesophageal reflux disease (eGERD).
Whereas the plasma concentration of linaprazan glurate is only very low and difficult to determine, the plasma concentration of linaprazan may be determined instead. […] It is estimated that this requires a minimal plasma concentration (Cmin) of linaprazan of at least about 240 nmol/L after 22 hours. At such doses, a once daily oral administration of the formulation would be sufficient. In some embodiments, therefore, a single unit dose of a pharmaceutical composition of linaprazan glurate provides a Cmin of linaprazan in a human of at least about 240 nmol/L after 22 hours following oral administration of the pharmaceutical composition to said human. In other embodiments, a daily administration of two unit doses of a pharmaceutical composition of linaprazan glurate provides a Cmin of linaprazan in a human of at least about 240 nmol/L after 10 hours following oral administration of the last unit dose of the pharmaceutical composition to said human.

gastric acid = settings: Phase I and II studies; cited from earlier work
[3] = Dynamic/gravimetric vapour sorption (DVS/GVS) hygroscopicity; type: physicochemical; settings: for hygroscopicity (in words): DVS/GVS at 25° C.
Experimental: Analyses were performed on an SMS DVS Advantage instrument. A few mg of the substance was added into an Al pan and exposed to stepwise RH changes according to 0-90-20% in steps of 10% RH, using open loop mode. The experiments were performed using a gas flow rate of 200 mL/min and at 25° C. The dm/dt criteria applied was 0.001 weight-%/min during a 5-minute window, with a maximum allowed time of 150 minutes and a minimum allowed time of 50 minutes for all steps except for the step at 0% RH, which had no criteria but was set to 6 h.
The hygroscopicity of Form A (as obtained from the synthesis described in Example 1), Form B (as obtained from a slurry in methanol/water 4:1) and Form C (as obtained from a slurry in ethanol) were investigated using GVS at 25° C. […] Form A can thus be classified as non-hygroscopic.
With a weight gain of about 3% at elevated humidities, it appears that a hydrate form is formed. Upon drying, Form B returned to the anhydrate; see FIGS. 12A and 12B, respectively.
Form C is thus classified as non-hygroscopic.

[4] = Thermogravimetric analysis (TGA) weight loss; type: physicochemical; settings: heating up to 175° C.
Experimental: Analyses were performed on a PerkinElmer TGA8000 instrument. A few mg of sample was gently charged into open Pt-pans and analysed by weight in a flow of dry nitrogen gas (40 mL/min), to ensure an inert atmosphere. The sample was scanned from 25 to 200° C. using a continuous scan speed of 10° C./min.
This confirms that Form A is an anhydrate.

[5] = GVS at 25° C., humidity range of 0-90%

Cc1cccc(C)c1CNc1cc(C(=O)NCCOC(=O)CCCC(=O)O)cn2c(C)c(C)nc12 [Form A of the free base]
solubility in water ([1]; pH 1): slightly soluble | solubility in water ([1]; pH 6.8): practically insoluble

Cc1cccc(C)c1CNc1cc(C(=O)NCCOC(=O)CCCC(=O)O)cn2c(C)c(C)nc12 [linaprazan glurate, 5-{2-[({8-[(2,6-dimethylbenzyl)amino]-2,3-dimethylimidazo[1,2-a]pyridine-6-yl}carbonyl)-amino]ethoxy}-5-oxopentanoic acid]
control of gastric acid production (intragastric acidity; compared to linaprazan): total control of the gastric acid production for a longer time | time intragastric acidity maintained above pH 4 (intragastric acidity; single dose, Phase I): 24 hours | plasma concentration ([2]; after absorption): only very low | half-life in the body ([2]; compared to linaprazan): longer half-life | metabolism after absorption into the blood stream ([2]; in vivo): quickly metabolized into linaprazan

Cc1cccc(C)c1CNc1cc(C(=O)NCCO)cn2c(C)c(C)nc12 [linaprazan]
concentration at 22 h (clinical): ≥ 240 nM | duration of acid inhibition (gastric acid): too short duration | elimination from the body (gastric acid): quickly eliminated from the body | onset of action (gastric acid): fast onset of action | tolerability (gastric acid): well tolerated

Br.Cc1cccc(C)c1CNc1cc(C(=O)NCCOC(=O)CCCC(=O)O)cn2c(C)c(C)nc12 [Form B]
hygroscopicity (in words) [3]: significant water uptake with increasing humidity | weight gain ([3]; GVS at 25° C., elevated humidities): about 3% | weight loss [4]: 0.3%

Br.Cc1cccc(C)c1CNc1cc(C(=O)NCCOC(=O)CCCC(=O)O)cn2c(C)c(C)nc12 [Form C]
water content ([3]; DVS, at 90% RH): not more than 0.05% | hygroscopicity (in words) [3]: non-hygroscopic; also recorded: very low | water uptake [3, 5]: about 0.05% | weight loss [4]: 0.2%

Br.Cc1cccc(C)c1CNc1cc(C(=O)NCCOC(=O)CCCC(=O)O)cn2c(C)c(C)nc12 [Form A]
water uptake ([3]; DVS, at 80% RH): about 0.15% | hygroscopicity (in words) [3]: non-hygroscopic; also recorded: very low hygroscopicity | water uptake [3, 5]: ~0.22% | weight loss [4]: 0.3%
